Among the data in US20140031278A1, “Novel Glucagon Analogues” (NOVO NORDISK A/S, priority 2011, published 2014) are EC50 values, retold here.

The target of this test is T1, glucagon receptor (Homo sapiens, UniProt P47871).
T1 construct: expressed in transfected cells
Put plainly: Assay (I) Glucagon activity (cAMP biosensor, FLIPR). The class given is cell-based. To be noted: HEK-293 cells with cloned glucagon receptor and cAMP biosensor; end point after 6 minutes. The procedure:
The glucagon receptor was cloned into HEK-293 cells having a membrane bound cAMP biosensor (ACTOne™). The cells (14000 per well) were incubated (37° C., 5% CO2) overnight in 384-well plates. Next day the cells were loaded with a calcium responsive dye that only distributed into the cytoplasm. Probenecid, an inhibitor of the organic anion transporter, was added to prevent the dye from leaving the cell. A PDE inhibitor was added to prevent formatted cAMP from being degraded, The plates were placed into a […] and the glucagon analogues were added. End point data were collected after 6 minutes. An increase in intracellular cAMP was proportional to an increased in calcium concentrations in the cytoplasm. When calcium was bound the dry a fluorescence signal was generated. EC50-values were calculated in Prism5.

The structures appear in SMILES notation. *1 amine or outer side, *2 acyl side, *3 side chain or, on linkers, in order; H or OH if unused. Where a SMILES comes first, the peptide text is derived from it. Side-chain parts run from the residue outwards. γGlu = O=C(O)[C@H](CCC(=O)[*:2])N[*:1]

T1 sequence (P47871 26-477): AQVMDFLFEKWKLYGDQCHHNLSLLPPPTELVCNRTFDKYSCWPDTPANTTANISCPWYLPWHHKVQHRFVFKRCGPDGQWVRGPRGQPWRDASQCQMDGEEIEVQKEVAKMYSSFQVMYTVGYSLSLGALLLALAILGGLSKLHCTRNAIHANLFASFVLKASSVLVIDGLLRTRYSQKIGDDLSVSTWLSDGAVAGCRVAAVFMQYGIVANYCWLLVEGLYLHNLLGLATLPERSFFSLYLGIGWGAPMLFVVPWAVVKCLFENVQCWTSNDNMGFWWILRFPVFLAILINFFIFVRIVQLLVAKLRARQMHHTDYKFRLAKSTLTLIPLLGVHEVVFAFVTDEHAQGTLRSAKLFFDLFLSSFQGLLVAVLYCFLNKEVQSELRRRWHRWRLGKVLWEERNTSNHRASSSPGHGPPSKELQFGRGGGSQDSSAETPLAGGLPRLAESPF

On to `CC(=O)N[C@@H](CCC(=O)N[C@@H](CCC(=O)N[C@@H](CCC(=O)N[C@@H](CCC(=O)NCCCC[C@H](NC(=O)[C@@H](NC(=O)[C@H](Cc1ccccc1)NC(=O)[C@H](CC(=O)O)NC(=O)[C@H](CCC(N)=O)NC(=O)[C@H](C)NC(=O)[C@H](CCCNC(=N)N)NC(=O)[C@H](CCCNC(=N)N)NC(=O)[C@H](CO)NC(=O)[C@H](CCC(=O)O)NC(=O)[C@H](CC(C)C)NC(=O)[C@H](Cc1ccc(O)cc1)NC(=O)[C@H](CCCCN)NC(=O)[C@H](CO)NC(=O)[C@@H](NC(=O)[C@H](CC(=O)O)NC(=O)[C@H](CO)NC(=O)[C@@H](NC(=O)[C@H](Cc1ccccc1)NC(=O)[C@@H](NC(=O)CNC(=O)[C@H](CCC(N)=O)NC(=O)[C@H](CO)NC(=O)[C@@H](N)Cc1c[nH]cn1)[C@@H](C)O)[C@@H](C)O)C(C)C)C(C)C)C(=O)N[C@@H](Cc1c[nH]c2ccccc12)C(=O)N[C@@H](CC(C)C)C(=O)N[C@@H](CC(C)C)C(=O)N[C@@H](CO)C(=O)N[C@H](C(=O)O)[C@@H](C)O)C(=O)O)C(=O)O)C(=O)O)C(=O)O` [Example 44, N^ε24-[(4S)-4-[[(4S)-4-[[(4S)-4-[[(4S)-4-acetamido-4-carboxybutanoyl]amino]-4-carboxybutanoyl]amino]-4-carboxybutanoyl]amino]-4-carboxybutanoyl]-[Val^10,Glu^15,Lys^24,Leu^27,Ser^28]-Glucagon] (H-HSQGTFTSDVSKYLESRRAQDFVK([γGlu-γGlu-γGlu-γGlu-Ac])WLLST-OH), for which the EC50 (commonly the concentration giving half of the maximal effect) was 75 pM.
With `CC(=O)N[C@@H](CCC(=O)N[C@@H](CCC(=O)N[C@@H](CCC(=O)N[C@@H](CCC(=O)NCCCC[C@H](NC(=O)[C@@H](NC(=O)[C@H](Cc1ccccc1)NC(=O)[C@H](CC(=O)O)NC(=O)[C@H](CCC(N)=O)NC(=O)[C@H](C)NC(=O)[C@H](CCCNC(=N)N)NC(=O)[C@H](CCCNC(=N)N)NC(=O)[C@H](Cc1ccccc1)NC(=O)[C@H](CC(=O)O)NC(=O)[C@H](CC(C)C)NC(=O)[C@H](Cc1ccc(O)cc1)NC(=O)[C@H](CCCCN)NC(=O)[C@H](CO)NC(=O)[C@H](Cc1ccc(O)cc1)NC(=O)[C@H](CC(=O)O)NC(=O)[C@H](CO)NC(=O)[C@@H](NC(=O)[C@H](Cc1ccccc1)NC(=O)[C@@H](NC(=O)CNC(=O)[C@H](CCC(N)=O)NC(=O)[C@H](CO)NC(=O)[C@@H](N)Cc1c[nH]cn1)[C@@H](C)O)[C@@H](C)O)C(C)C)C(=O)N[C@@H](Cc1c[nH]c2ccccc12)C(=O)N[C@@H](CC(C)C)C(=O)N[C@@H](CC(C)C)C(=O)N[C@@H](CO)C(=O)N[C@H](C(=O)O)[C@@H](C)O)C(=O)O)C(=O)O)C(=O)O)C(=O)O` [Example 35], a half-maximal response (EC50) required 2.8 pM.
In turn, `CC(=O)N[C@@H](CCC(=O)N[C@@H](CCC(=O)N[C@@H](CCC(=O)N[C@@H](CCC(=O)NCCCC[C@H](NC(=O)[C@@H](NC(=O)[C@H](Cc1ccccc1)NC(=O)[C@H](CC(=O)O)NC(=O)[C@H](CCC(N)=O)NC(=O)[C@H](C)NC(=O)[C@H](CCCNC(=N)N)NC(=O)[C@H](CCCNC(=N)N)NC(=O)[C@H](CC(C)C)NC(=O)[C@H](CC(=O)O)NC(=O)[C@H](CC(C)C)NC(=O)[C@H](Cc1ccc(O)cc1)NC(=O)[C@H](CCCCN)NC(=O)[C@H](CO)NC(=O)[C@H](Cc1ccc(O)cc1)NC(=O)[C@H](CC(=O)O)NC(=O)[C@H](CO)NC(=O)[C@@H](NC(=O)[C@H](Cc1ccccc1)NC(=O)[C@@H](NC(=O)CNC(=O)[C@H](CCC(N)=O)NC(=O)[C@@H](NC(=O)[C@@H](N)Cc1c[nH]cn1)[C@@H](C)O)[C@@H](C)O)[C@@H](C)O)C(C)C)C(=O)N[C@@H](Cc1c[nH]c2ccccc12)C(=O)N[C@@H](CC(C)C)C(=O)N[C@@H](CC(C)C)C(=O)N[C@@H](CO)C(=O)N[C@H](C(=O)O)[C@@H](C)O)C(=O)O)C(=O)O)C(=O)O)C(=O)O` [Example 41, N^e24-[(4S)-4-[[(4S)-4-[[(4S)-4-[[(4S)-4-acetamido-4-carboxybutanoyl]amino]-4-carboxybutanoyl]amino]-4-carboxybutanoyl]amino]-4-carboxybutanoyl]-[Thr^2,Leu^16,Lys^24,Leu^27,Ser^28]-Glucagon] (H-HTQGTFTSDYSKYLDLRRAQDFVK([γGlu-γGlu-γGlu-γGlu-Ac])WLLST-OH) displayed an EC50 of 3 pM.
As to `CC(C)C[C@H](NC(=O)[C@H](Cc1ccc(O)cc1)NC(=O)[C@H](CCCCN)NC(=O)[C@H](CO)NC(=O)[C@H](Cc1ccc(O)cc1)NC(=O)[C@H](CC(=O)O)NC(=O)[C@H](CO)NC(=O)[C@@H](NC(=O)[C@H](Cc1ccccc1)NC(=O)[C@@H](NC(=O)CNC(=O)[C@H](Cc1c[nH]cn1)NC(=O)[C@H](CO)NC(=O)[C@@H](N)Cc1c[nH]cn1)[C@@H](C)O)[C@@H](C)O)C(=O)N[C@@H](CCC(=O)O)C(=O)N[C@@H](CO)C(=O)N[C@@H](CCCNC(=N)N)C(=O)N[C@@H](CCCNC(=N)N)C(=O)N[C@@H](C)C(=O)N[C@@H](C)C(=O)N[C@@H](CC(=O)O)C(=O)N[C@@H](Cc1ccccc1)C(=O)N[C@H](C(=O)N[C@@H](CCCCNC(=O)CC[C@H](NC(=O)CC[C@H](NC(=O)CC[C@H](NC(=O)CC[C@H](N)C(=O)O)C(=O)O)C(=O)O)C(=O)O)C(=O)N[C@@H](Cc1c[nH]c2ccccc12)C(=O)N[C@@H](CC(C)C)C(=O)N[C@@H](CC(C)C)C(=O)N[C@@H](CO)C(=O)N[C@H](C(=O)O)[C@@H](C)O)C(C)C` [Example 5, N^ε24-[(4S)-4-[[(4S)-4-[[(4S)-4-[[(4S)-4-amino-4-carboxybutanoyl]amino]-4-carboxybutanoyl]amino]-4-carboxybutanoyl]amino]-4-carboxybutanoyl]-[His3,Glu15,Ala20,Lys24,Leu27,Ser28]-Glucagon] (H-HSHGTFTSDYSKYLESRRAADFVK([γGlu-γGlu-γGlu-γGlu])WLLST-OH), the EC50 stood at 56.3 pM.
In the case of `CC[C@H](C)[C@H](NC(=O)[C@H](CC(=O)O)NC(=O)[C@H](CC(C)C)NC(=O)[C@H](Cc1ccc(O)cc1)NC(=O)[C@H](CCCCN)NC(=O)[C@H](CO)NC(=O)[C@H](Cc1ccc(O)cc1)NC(=O)[C@H](CC(=O)O)NC(=O)[C@H](CO)NC(=O)[C@@H](NC(=O)[C@H](Cc1ccccc1)NC(=O)[C@@H](NC(=O)CNC(=O)[C@H](CCC(N)=O)NC(=O)[C@H](CO)NC(=O)[C@@H](N)Cc1c[nH]cn1)[C@@H](C)O)[C@@H](C)O)C(=O)N[C@@H](CCCNC(=N)N)C(=O)N[C@@H](CCCNC(=N)N)C(=O)N[C@@H](C)C(=O)N[C@@H](CCC(N)=O)C(=O)N[C@@H](CC(=O)O)C(=O)N[C@@H](Cc1ccccc1)C(=O)N[C@H](C(=O)N[C@@H](CCCCNC(=O)CC[C@H](NC(=O)CC[C@H](NC(=O)CC[C@H](NC(=O)CC[C@H](NC(C)=O)C(=O)O)C(=O)O)C(=O)O)C(=O)O)C(=O)N[C@@H](Cc1c[nH]c2ccccc12)C(=O)N[C@@H](CC(C)C)C(=O)N[C@@H](CC(C)C)C(=O)N[C@@H](CO)C(=O)N[C@H](C(=O)O)[C@@H](C)O)C(C)C` [Example 36, N^ε24-[(4S)-4-[[(4S)-4-[[(4S)-4-[[(4S)-4-acetamido-4-carboxybutanoyl]amino]-4-carboxybutanoyl]amino]-4-carbox[…]ybutanoyl]amino]-4-carboxybutanoyl]-[Ile16,Lys24,Leu27,Ser28]-Glucagon] it was 2.5 pM.
